Measured values published in US12581252B2, “Substituted pyrrolo[3,4-b]pyridines as PI3K-α inhibitors” (Relay Therapeutics, Inc., priority 2020, dated 2026).

What was measured:
cells = details: Homo sapiens, MCF-10A, read-out: MCF10A IC50
H1047R PIK3CA enzyme = H1047R PIK3CA enzyme (Homo sapiens, UniProt P42336, H1047R); assay: ADP-Glo Biochemical PIK3CA Kinase Assay
H1047R PIK3CA enzyme, sequence (P42336 whole entry H1047R): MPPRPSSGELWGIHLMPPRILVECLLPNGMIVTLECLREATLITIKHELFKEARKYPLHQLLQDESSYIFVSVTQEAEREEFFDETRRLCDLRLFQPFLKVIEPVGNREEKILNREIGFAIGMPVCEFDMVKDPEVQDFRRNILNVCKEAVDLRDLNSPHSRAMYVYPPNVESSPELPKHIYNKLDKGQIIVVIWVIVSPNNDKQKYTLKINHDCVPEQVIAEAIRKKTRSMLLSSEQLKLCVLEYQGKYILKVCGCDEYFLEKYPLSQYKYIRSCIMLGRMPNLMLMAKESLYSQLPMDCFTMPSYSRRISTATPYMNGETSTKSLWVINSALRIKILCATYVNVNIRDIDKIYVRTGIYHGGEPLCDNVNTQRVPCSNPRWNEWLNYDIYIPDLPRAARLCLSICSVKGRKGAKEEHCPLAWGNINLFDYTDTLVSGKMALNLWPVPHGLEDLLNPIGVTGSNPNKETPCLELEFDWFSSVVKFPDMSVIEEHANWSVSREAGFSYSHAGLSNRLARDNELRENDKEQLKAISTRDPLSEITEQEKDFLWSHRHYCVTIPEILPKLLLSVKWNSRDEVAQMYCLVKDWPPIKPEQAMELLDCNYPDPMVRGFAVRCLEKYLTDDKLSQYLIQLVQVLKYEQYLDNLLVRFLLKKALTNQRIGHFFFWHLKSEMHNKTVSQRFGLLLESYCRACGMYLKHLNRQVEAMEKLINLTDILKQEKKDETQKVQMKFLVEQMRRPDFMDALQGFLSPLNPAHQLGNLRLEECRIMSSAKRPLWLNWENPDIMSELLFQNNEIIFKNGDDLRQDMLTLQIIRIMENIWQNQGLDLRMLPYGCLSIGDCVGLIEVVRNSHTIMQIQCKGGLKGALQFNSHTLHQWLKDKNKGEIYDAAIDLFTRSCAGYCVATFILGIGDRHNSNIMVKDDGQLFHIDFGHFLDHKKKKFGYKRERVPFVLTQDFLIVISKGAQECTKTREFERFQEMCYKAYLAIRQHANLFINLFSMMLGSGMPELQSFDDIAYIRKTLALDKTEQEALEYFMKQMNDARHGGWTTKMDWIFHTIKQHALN
H1047R PIK3CA enzyme, sequence (P27986 whole entry partner): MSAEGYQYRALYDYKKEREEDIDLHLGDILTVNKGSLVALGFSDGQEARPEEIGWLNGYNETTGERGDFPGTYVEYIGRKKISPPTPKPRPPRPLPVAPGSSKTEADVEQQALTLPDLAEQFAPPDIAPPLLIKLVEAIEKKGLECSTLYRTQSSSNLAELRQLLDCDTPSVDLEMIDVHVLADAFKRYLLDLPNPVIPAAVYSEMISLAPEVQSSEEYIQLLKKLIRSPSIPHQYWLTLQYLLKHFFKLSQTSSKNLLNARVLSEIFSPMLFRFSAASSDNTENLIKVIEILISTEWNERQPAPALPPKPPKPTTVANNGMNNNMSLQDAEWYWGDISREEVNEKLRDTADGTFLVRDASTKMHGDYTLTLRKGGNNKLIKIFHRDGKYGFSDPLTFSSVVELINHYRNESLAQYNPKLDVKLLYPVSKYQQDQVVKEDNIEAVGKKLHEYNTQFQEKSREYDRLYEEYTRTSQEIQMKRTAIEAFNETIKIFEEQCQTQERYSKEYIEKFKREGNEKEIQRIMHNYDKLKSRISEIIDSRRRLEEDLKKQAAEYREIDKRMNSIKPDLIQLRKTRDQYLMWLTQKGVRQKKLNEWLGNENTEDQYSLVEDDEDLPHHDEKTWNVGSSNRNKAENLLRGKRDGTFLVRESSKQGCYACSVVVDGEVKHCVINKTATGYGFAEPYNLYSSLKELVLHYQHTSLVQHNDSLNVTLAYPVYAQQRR

## O=C1N[C@H](c2cc(F)ccc2Cl)c2c(NC(=O)N3C[C@@](O)(C(F)(F)F)c4cc(F)ccc43)ccnc21 (single isomer, unassigned) [Compound I-2698]
cells
  IC50: 1000 to 5000 nM
H1047R PIK3CA enzyme
  IC50: ≤ 100 nM

## O=C(Nc1cc(-c2ccc3[nH]ncc3c2)cc2c1C(c1cc(F)ccc1Cl)NC2=O)c1cc(F)cc(C(F)(F)F)c1 (stereo not shown) [Compound I-1033]
cells
  IC50: < 1000 nM
H1047R PIK3CA enzyme
  IC50: ≤ 100 nM

## CS(=O)(=O)Nc1cc(NC(=O)c2cc(F)cc(C(F)(F)F)c2)c2c(c1)C(=O)NC2c1cc(F)ccc1Cl (stereo not shown) [Compound I-1159]
cells
  IC50: < 1000 nM
H1047R PIK3CA enzyme
  IC50: ≤ 100 nM

## O=C(Nc1cc(-c2cccc3c2CCNC3=O)cc2c1C(c1cc(F)ccc1Cl)NC2=O)c1cc(F)cc(C(F)(F)F)c1 (stereo not shown) [Compound I-1042]
cells
  IC50: < 1000 nM
H1047R PIK3CA enzyme
  IC50: ≤ 100 nM

## O=C(Nc1cc(-c2cccc3nccn23)cc2c1C(c1cc(F)ccc1Cl)NC2=O)c1cc(F)cc(C(F)(F)F)c1 (stereo not shown) [Compound I-1013]
cells
  IC50: < 1000 nM
H1047R PIK3CA enzyme
  IC50: ≤ 100 nM

## O=C(Nc1cc(-c2cn[nH]c2)cc2c1C(c1cc(F)ccc1Cl)NC2=O)c1cc(F)cc(C(F)(F)F)c1 (stereo not shown) [Compound I-878]
cells
  IC50: < 1000 nM
H1047R PIK3CA enzyme
  IC50: ≤ 100 nM

## O=C(Nc1cc(-c2cncs2)cc2c1C(c1cc(F)ccc1Cl)NC2=O)c1cc(F)cc(C(F)(F)F)c1 (stereo not shown) [Compound I-1065]
cells
  IC50: < 1000 nM
H1047R PIK3CA enzyme
  IC50: ≤ 100 nM

## CC(C)(O)Cn1cc(-c2cc(NC(=O)c3cc(F)cc(C(F)(F)F)c3)c3c(c2)C(=O)NC3c2cc(F)ccc2Cl)cn1 (stereo not shown) [Compound I-968]
cells
  IC50: < 1000 nM
H1047R PIK3CA enzyme
  IC50: ≤ 100 nM

## Cc1ccccc1C1NC(=O)c2cccc(NC(=O)N3CCc4ccccc43)c21 (stereo not shown) [Compound I-43, N-[3-(2-methylphenyl)-1-oxo-2,3-dihydro-1H-isoindol-4-yl]-2,3-dihydro-1H-indole-1-carboxamide]
cells
  IC50: 1000 to 5000 nM
H1047R PIK3CA enzyme
  IC50: ≤ 100 nM

## O=C(Nc1cc(-c2ccc3ncnn3c2)cc2c1[C@H](c1cc(F)ccc1C(F)F)NC2=O)c1cc(F)cc(C(F)(F)F)c1 (stereo in doubt) [Compound I-1056]
cells
  IC50: < 1000 nM
H1047R PIK3CA enzyme
  IC50: ≤ 100 nM

## O=C(Nc1cc(-c2n[nH]c3ncccc23)cc2c1C(c1cc(F)ccc1Cl)NC2=O)c1cc(F)cc(C(F)(F)F)c1 (stereo not shown) [Compound I-939]
cells
  IC50: < 1000 nM
H1047R PIK3CA enzyme
  IC50: ≤ 100 nM

## O=C(Nc1cc(-c2cc3ccccc3[nH]2)cc2c1C(c1cc(F)ccc1Cl)NC2=O)c1cc(F)cc(C(F)(F)F)c1 (stereo not shown) [Compound I-971]
cells
  IC50: < 1000 nM
H1047R PIK3CA enzyme
  IC50: ≤ 100 nM

## Cn1cc(Nc2cc(NC(=O)c3cc(F)cc(C(F)(F)F)c3)c3c(c2)C(=O)NC3c2cc(F)ccc2Cl)nn1 (stereo not shown) [Compound I-965]
cells
  IC50: < 1000 nM
H1047R PIK3CA enzyme
  IC50: ≤ 100 nM

## O=C1N[C@@H](c2cc(F)ccc2Cl)c2c(NC(=O)c3csc4ccccc34)cc(-c3ccc4ncnn4c3)cc21 [Compound I-1684]
cells
  IC50: < 1000 nM
H1047R PIK3CA enzyme
  IC50: ≤ 100 nM

## O=C(Nc1cc(Br)cc2c1C(c1cc(F)ccc1Cl)NC2=O)c1cc(F)cc(C(F)(F)F)c1 (stereo not shown) [Compound I-124]
cells
  IC50: 1000 to 5000 nM
H1047R PIK3CA enzyme
  IC50: ≤ 100 nM

## CNC(=O)c1cc(NC(=O)c2csc3ccccc23)c2c(c1)C(=O)NC2c1ccccc1C (racemic) [Compound I-6, 7-(Benzo[b]thiophene-3-carboxamido)-N-methyl-3-oxo-1-(o-tolyl)isoindoline-5-carboxamide]
cells
  IC50: < 1000 nM
H1047R PIK3CA enzyme
  IC50: ≤ 100 nM

## O=C(Nc1cccc2c1[C@H](c1cc(F)ccc1Cl)NC2=O)c1cc(F)cc(C(F)(F)F)c1 [Compound I-500]
cells
  IC50: < 1000 nM
H1047R PIK3CA enzyme
  IC50: ≤ 100 nM

## O=C(Nc1cc(-c2cnn(C3CC3)c2)cc2c1C(c1cc(F)ccc1Cl)NC2=O)c1cc(F)cc(C(F)(F)F)c1 (stereo not shown) [Compound I-942]
cells
  IC50: < 1000 nM
H1047R PIK3CA enzyme
  IC50: ≤ 100 nM

## Cc1nn(C)cc1Nc1cc(NC(=O)c2cc(F)cc(C(F)(F)F)c2)c2c(c1)C(=O)NC2c1cc(F)ccc1Cl (stereo not shown) [Compound I-924]
cells
  IC50: < 1000 nM
H1047R PIK3CA enzyme
  IC50: ≤ 100 nM

## NCCc1cc(NC(=O)N2C[C@@](O)(C(F)(F)F)c3cc(F)ccc32)c2c(c1)C(=O)N[C@H]2c1cc(F)ccc1Cl (single isomer, unassigned) [Compound I-2581]
cells
  IC50: 10000 to 36000 nM
H1047R PIK3CA enzyme
  IC50: ≤ 100 nM
